Results from patent publication US20220363709A1, “ECTONU[…] METHODS OF USE THEREOF” (priority 2019, published 2022).

molecular target: T1, recombinant CD73 (Homo sapiens, UniProt P21589); assay: Assay 1: Inhibition of the CD73 Enzyme In Vitro; format: biochemical; details: not given
T1 construct: purchased R&D Systems 5795-EN-010
T1 sequence (P21589 27-547 limits assumed): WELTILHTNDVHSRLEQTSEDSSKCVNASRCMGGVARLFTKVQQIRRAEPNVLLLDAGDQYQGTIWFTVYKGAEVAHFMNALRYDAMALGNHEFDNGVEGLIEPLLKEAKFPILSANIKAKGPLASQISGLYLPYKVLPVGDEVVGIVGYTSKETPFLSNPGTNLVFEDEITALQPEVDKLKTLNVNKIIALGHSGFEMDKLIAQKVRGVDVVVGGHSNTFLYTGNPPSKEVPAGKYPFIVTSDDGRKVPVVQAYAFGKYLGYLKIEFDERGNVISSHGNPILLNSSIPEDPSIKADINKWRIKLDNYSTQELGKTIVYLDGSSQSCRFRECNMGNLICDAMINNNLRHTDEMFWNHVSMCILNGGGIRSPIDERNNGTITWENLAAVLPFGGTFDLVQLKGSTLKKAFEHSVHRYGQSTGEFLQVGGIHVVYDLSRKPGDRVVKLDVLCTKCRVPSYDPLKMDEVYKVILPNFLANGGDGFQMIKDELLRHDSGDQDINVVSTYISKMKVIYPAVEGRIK
Protocol: Serial dilutions of test compounds were incubated with recombinant CD73 and AMP in reaction buffer (25 mM Tris HCl pH7.5, 5 mM MgCl2, 50 mM NaCl, 0.25 mM DTT, 0.005% Triton X-100). The final reaction volume was 25 μL and the final concentrations of recombinant CD73 and AMP were 0.5 nM and 50 μM, respectively. […] After 5 minutes at room temperature, absorbance at 630 nm was determined on a microplate spectrophotometer. The concentration of inorganic phosphate was determined using a phosphate standard curve.
ND indicates not determined.

| IC50 | Structure (SMILES) |
| --- | --- |
| > 50000 nM | COC(=O)c1ccccc1-c1ccc(CC(OC[C@H]2O[C@@H](n3cnc4c(N)nc(Cl)nc43)[C@H](O)[C@@H]2O)(C(=O)O)c2ccccc2)cc1 (stereo partly drawn) [Example 46, 2-(((2R,3S,4R,5R)-5-(6-amino-2-chloro-9H-purin-9-yl)-3,4-dihydroxytetrahydrofuran-2-yl)methoxy)-3-(2′-(methoxycarbonyl)-[1,1′-biphenyl]-4-yl)-2-phenylpropanoic acid] |
| > 1000 nM | Nc1nc(Cl)nc2c1ncn2[C@@H]1O[C@H](COC(Cc2ccc(-c3ccccc3C(=O)O)cc2)(C(=O)O)c2cscn2)C[C@H]1O (stereo partly drawn) [Example 50, 4′-(2-(((2S,4R,5R)-5-(6-amino-2-chloro-9H-purin-9-yl)-4-hydroxytetrahydrofuran-2-yl)methoxy)-2-carboxy-2-(thiazol-4-yl)ethyl)-[1,1′-biphenyl]-2-carboxylic acid] |

same assay, conditions: soluble recombinant CD73 0.5 nM, AMP 50 μM, 30 minutes at room temperature, Malachite Green, absorbance at 630 nm; read-out: Assay 1 CD73 IC50

| Structure (SMILES) | IC50 |
| --- | --- |
| CCCCOc1nc(Cl)nc2c1ncn2[C@@H]1O[C@H](COC(Cc2ccccc2)(C(=O)O)c2cscn2)[C@@H](O)[C@@H]1F (mixture of isomers) [Example 23, 2-(((2R,3R,4S,5R)-5-(6-butoxy-2-chloro-9H-purin-9-yl)-4-fluoro-3-hydroxytetrahydrofuran-2-yl)methoxy)-3-phenyl-2-(thiazol-4-yl)propanoic acid] | 3420 nM |
| Nc1nc(Cl)nc2c1ncn2[C@@H]1O[C@H](CO[C@@](Cc2ccccc2)(C(=O)O)c2cocn2)[C@@H](O)[C@H]1O (single isomer, unassigned) [Example 36] | 6260 nM |
| Nc1nc(Cl)nc2c1ncn2[C@@H]1O[C@H](COC(C(=O)O)c2cscn2)[C@@H](O)[C@@H]1F (mixture of isomers) [Example 14, 2-(((2R3R,4S,5R)-5-(6-amino-2-chloro-9H-purin-9-yl)-4-fluoro-3-hydroxytetrahydrofuran-2-yl)methoxy)-2-(thiazol-4-yl)acetic acid] | 22100 nM |
| Nc1nc(Cl)nc2c1ncn2[C@@H]1O[C@H](COC(Cc2ccccc2)(C(=O)O)c2cscn2)[C@@H](O)[C@H]1O (mixture of isomers) [Example 26, 2-(((2R,3S,4R,5R)-5-(6-amino-2-chloro-9H-purin-9-yl)-3,4-dihydroxytetrahydrofuran-2-yl)methoxy)-3-phenyl-2-(thiazol-4-yl)propanoic acid] | 400 nM |
| CCCNc1nc(Cl)nc2c1ncn2[C@@H]1O[C@H](COC(Cc2ccccc2)(C(=O)O)c2cscn2)[C@@H](O)[C@@H]1F (mixture of isomers) [Example 24, 2-(((2R,3R4S,5R)-5-(2-chloro-6-(propylamino)-9H-purin-9-yl)-4-fluoro-3-hydroxytetrahydrofuran-2-yl)methoxy)-3-phenyl-2-(thiazol-4-yl)propanoic acid] | 1240 nM |
| Nc1nc(Cl)nc2c1ncn2[C@@H]1O[C@H](CO[C@](Cc2ccc(-c3ccccc3C(=O)O)cc2)(C(=O)O)c2ccccc2)[C@@H](O)[C@H]1O (single isomer, unassigned) [Example 47] | 4220 nM |
| Nc1nc(Cl)nc2c1ncn2[C@@H]1O[C@H](COC(Cc2ccc(-c3ccccc3)cc2)(C(=O)O)c2csc(Cl)n2)[C@@H](O)[C@H]1O (mixture of isomers) [Example 27, 3-([1,1′-biphenyl]-4-yl)-2-(((2R,3S,4R,5R)-5-(6-amino-2-chloro-9H-purin-9-yl)-3,4-dihydroxytetrahydrofuran-2-yl)methoxy)-2-(2-chlorothiazol-4-yl)propanoic acid] | 106 nM |
| Nc1nc(Cl)nc2c1ncn2[C@@H]1O[C@H](CO[C@@](Cc2ccc(-c3ccccc3C(=O)O)cc2)(C(=O)O)c2ccccc2)[C@@H](O)[C@H]1O (single isomer, unassigned) [Example 48] | 14100 nM |
| CCN(CC)C(=O)c1ccccc1-c1ccc(CC(OC[C@H]2O[C@@H](n3cnc4c(N)nc(Cl)nc43)[C@H](O)[C@@H]2O)(C(=O)O)c2cscn2)cc1 (mixture of isomers) [Example 45, 2-(((2R,3S,4R,5R)-5-(6-amino-2-chloro-9H-purin-9-yl)-3,4-dihydroxytetrahydrofuran-2-yl)methoxy)-3-(2′-(diethylcarbamoyl)-[1,1′-biphenyl]-4-yl)-2-(thiazol-4-yl)propanoic acid] | 833 nM |
| Nc1nc(Cl)nc2c1ncn2[C@@H]1O[C@H](COC(Cc2cccc(C(=O)O)c2)(C(=O)O)c2cscn2)[C@@H](O)[C@@H]1F (mixture of isomers) [Example 17, 3-(2-(((2R,3R,4S,5R)-5-(6-amino-2-chloro-9H-purin-9-yl)-4-fluoro-3-hydroxytetrahydrofuran-2-yl)methoxy)-2-carboxy-2-(thiazol-4-yl)ethyl)benzoic acid] | 740 nM |
| Nc1nc(Cl)nc2c1ncn2[C@@H]1O[C@H](COC(Cc2ccc(-c3ccccc3C(=O)O)cc2)(C(=O)O)c2ccsc2)[C@@H](O)[C@H]1O (mixture of isomers) [Example 49, 4′-(2-(((2R,3S,4R,5R)-5-(6-amino-2-chloro-9H-purin-9-yl)-3,4-dihydroxytetrahydrofuran-2-yl)methoxy)-2-carboxy-2-(thiophen-3-yl)ethyl)-[1,1′-biphenyl]-2-carboxylic acid] | 2270 nM |

Now from value to compound:

| IC50 | Structure (SMILES) |
| --- | --- |
| 35 nM | N#CCc1ccccc1-c1ccc(C[C@@](OC[C@H]2O[C@@H](n3cnc4c(N)nc(Cl)nc43)[C@H](O)[C@@H]2O)(C(=O)O)c2cscn2)cc1 (single isomer, unassigned) [Example 4] |
| 1030 nM | Nc1nc(Cl)nc2c1ncn2[C@@H]1O[C@H](CO[C@@](Cc2ccc(-c3ccccc3CC(=O)O)cc2)(C(=O)O)c2cscn2)[C@@H](O)[C@H]1O (single isomer, unassigned) [Example 7] |
| 904 nM | CS(=O)(=O)Nc1ccccc1-c1ccc(C[C@](OC[C@H]2O[C@@H](n3cnc4c(N)nc(Cl)nc43)[C@H](O)[C@@H]2O)(C(=O)O)c2cscn2)cc1 (single isomer, unassigned) [Example 42] |
| 2750 nM | COc1ncccc1-c1ccc(C[C@](OC[C@H]2O[C@@H](n3cnc4c(N)nc(Cl)nc43)[C@@H](F)[C@@H]2O)(C(=O)O)c2cscn2)cc1 (single isomer, unassigned) [Example 20] |
| 365 nM | Nc1nc(Cl)nc2c1ncn2[C@@H]1O[C@H](CO[C@@](Cc2ccc(-c3ccccc3OC(F)(F)F)cc2)(C(=O)O)c2cscn2)[C@@H](O)[C@H]1O (single isomer, unassigned) [Example 44] |
| 2980 nM | Nc1nc(Cl)nc2c1ncn2[C@@H]1O[C@H](CO[C@@](Cc2ccc(-c3ccc[nH]c3=O)cc2)(C(=O)O)c2cscn2)[C@@H](O)[C@@H]1F (single isomer, unassigned) [Example 22] |
| 382 nM | CCCNc1nc(Cl)nc2c1ncn2[C@@H]1O[C@H](COC(Cc2ccc(-c3ccccc3C(=O)O)cc2)(C(=O)O)c2cscn2)[C@@H](O)[C@@H]1F (mixture of isomers) [Example 25, 4′-(2-carboxy-2-(((2R,3R,4S,5R)-5-(2-chloro-6-(propylamino)-9H-purin-9-yl)-4-fluoro-3-hydroxytetrahydrofuran-2-yl)methoxy)-2-(thiazol-4-yl)ethyl)-[1,1′-biphenyl]-2-carboxylic acid] |
| 99 nM | Nc1nc(Cl)nc2c1ncn2[C@@H]1O[C@H](COC(Cc2ccc(-c3ccccc3)cc2)(C(=O)O)c2cscn2)[C@@H](O)[C@H]1O (mixture of isomers) [Example 1, 3-([1,1′-biphenyl]-4-yl)-2-(((2R,3S,4R,5R)-5-(6-amino-2-chloro-9H-purin-9-yl)-3,4-dihydroxytetrahydrofuran-2-yl)methoxy)-2-(thiazol-4-yl)propanoic acid] |
| 502 nM | N#CCc1ccccc1-c1ccc(C[C@](OC[C@H]2O[C@@H](n3cnc4c(N)nc(Cl)nc43)[C@H](O)[C@@H]2O)(C(=O)O)c2cscn2)cc1 (single isomer, unassigned) [Example 5] |
| 296 nM | Nc1nc(Cl)nc2c1ncn2[C@@H]1O[C@H](CO[C@](Cc2ccc(C(=O)O)cc2)(C(=O)O)c2cscn2)[C@@H](O)[C@@H]1F (single isomer, unassigned) [Example 15] |
| 42 nM | CNS(=O)(=O)c1ccccc1-c1ccc(CC(OC[C@H]2O[C@@H](n3cnc4c(N)nc(Cl)nc43)[C@H](O)[C@@H]2O)(C(=O)O)c2cscn2)cc1 (mixture of isomers) [Example 38, 2-(((2R,3S,4R,5R)-5-(6-amino-2-chloro-9H-purin-9-yl)-3,4-dihydroxytetrahydrofuran-2-yl)methoxy)-3-(2′-(N-methylsulfamoyl)-[1,1′-biphenyl]-4-yl)-2-(thiazol-4-yl)propanoic acid] |
| 51 nM | Nc1nc(Cl)nc2c1ncn2[C@@H]1O[C@H](CO[C@](Cc2ccc(-c3ccccc3OC(F)(F)F)cc2)(C(=O)O)c2cscn2)[C@@H](O)[C@H]1O (single isomer, unassigned) [Example 43] |
| 1530 nM | Nc1nc(Cl)nc2c1ncn2[C@@H]1O[C@H](CO[C@@](Cc2ccc(-c3ccc(C(=O)O)cc3)cc2)(C(=O)O)c2cscn2)[C@@H](O)[C@@H]1F (single isomer, unassigned) [Example 11] |
